Measured values: patent US20160038532A1, “Treatment of Multiple Sclerosis With Combination of Laquinimod and Glatiramer Acetate” (TEVA PHARMACEUTICAL INDUSTRIES, LTD., priority 2011, published 2016)
Several values for one entry are separate records, joined by “and”; a condition that tells them apart may be missing. Equal values may be shown once. Read-outs that look alike come from different tables or passages of the source. Marks after values point to notes of the source that are not given here.

Key:
MOG-induced EAE [1] = assay: MOG-induced EAE, laquinimod alone and with GA blocking (Example 2.1), clinical signs; type: in vivo, C57B1/6 mice; parameters: Mortality: concentration or dose not given beside the values
[2] = Weight of EAE mice (Example 2.1); type: in vivo, C57B1/6 mice; conditions: alone or + GA-blocking
Excerpt: FIG. 1 is a graphical representation of the experimental results from Example 2.1.
The differences were statistically significant (by MANOVA). […] However, when the first signs appeared the mice started to lose weight. On days 16 and 24 the weight of control mice was statistically different from almost all the others (Table 4, FIG. 1B).

MOG-induced EAE [3] = assay: MOG-induced EAE, repeat study (Example 2.3); type: in vivo, C57B1/6 mice; conditions: alone or + GA-blocking 12.5 mg/kg day 0
Method: 120 female C57B1/6 mice 8-10 weeks old were used the study. Mice were allocated randomly into 8 groups according to Table 7 below.
24 mg MOG was diluted in 8 ml PBS (3 mg/ml, stock solution). Groups 1, 3, 5 and 7: 4 ml of stock solution was diluted 1:1 with PBS. […] This solution was mixed 1:1 with the stock solution of MOG.
The high dose LAQ (25 mg/10 ml/kg) solution (150 mg in 60 ml DDW) was prepared once weekly and stored in the amber glass at room temperature. The lower LAQ doses were prepared daily. For the dose of 5 mg/kg, 1.6 ml of stock solution were added to 6.4 ml DDW. For the dose 1 mg/kg, […] of the previous solution (intermediate dose) were added to 5.2 ml DDW. The compound was administered by gavage once daily during the hole experiment (30 days) at a volume of 0.2 ml/mouse.
The mice were observed daily from the 10th day post-EAE induction (first injection of MOG) and the EAE clinical signs were scored according to the grades described in the 2 above.

[4] = system: relapsing remitting (RR) EAE; assay: Relapsing remitting EAE in Biozzi mice, combination study (Example 2.6); type: in vivo; parameters: MMS value / IMS value: scale not given here; conditions: for inhibition at 5 mg/kg / inhibition at 12.5 mg/kg / inhibition at 25 mg/kg: Mus musculus, 1416 h
Method: EAE is an animal model for multiple sclerosis. In the Biozzi AB/H EAE mice, a RR EAE can be induced. […] Re-injection of an encephalitogen can induce a chronic relapsing disease that enables measuring long-term effects on subsequent relapses rather than immediate effects.
The EAE induction was performed according to procedure “RR-EAE.Biozzi” The Biozzi mice were weighed and injected subcutaneously and re-injected one week later with encephalitogenic agent (MSCH emulsion). 0.3 mL of the encephalitogenic agent containing 1.0 mg of MSCH and 200.0 μg of MT was injected subcutaneously, at two sites in the right flank of each mouse (0.15 mL at each site). The second injection was done in a similar manner in the left flank, one week later.
On the day of first injection of encephalotigen, the Biozzi mice were randomly allocated to eight treatment groups as follows: Tables 16-17.
The 5.0 mg/mL laquinimod stock solution was diluted 1:5 to yield 1 mg/mL.
The mice in all the groups were administered daily by oral gavage a volume dose level of […] of the respective test formulations from the day the mice are allocated to the treatment groups (first injection of encephalitogen) for 59 consecutive days until the termination of the study.
The mice were examined and scored according to the following table, until the termination of the study (60 days after initiation of treatment).
The activity of the test articles for the first and second phase of RR EAE was calculated by comparing the incidence of disease, mortality, onset and duration of disease, group mean score and mean maximal score to the control group. Calculations were carried separately and together for the first and the second relapse.

[5] = in vivo; cited from earlier work
Multiple Sclerosis = conditions: two phase III trials; cited from earlier work
[6] = laquinimod 5 mg/kg/day gavage, alone or + GA-blocking 12.5 mg/kg day 0
[7] = laquinimod 25 mg/kg/day gavage, alone or + GA-blocking 12.5 mg/kg day 0
[8] = first and second attacks together, laquinimod 5.0 mg/kg oral daily 59 d, alone or + GA 12.5 mg/kg oral
[9] = first and second attacks together, laquinimod 12.5 mg/kg oral daily 59 d
[10] = first and second attacks together, laquinimod 25.0 mg/kg oral daily 59 d, alone or + GA 12.5 mg/kg oral
[11] = first attack, LAQ 5.0 mg/kg oral daily, alone or + GA 12.5 mg/kg oral
[12] = first attack, LAQ 12.5 mg/kg oral daily
[13] = first attack, LAQ 25.0 mg/kg oral daily, alone or + GA 12.5 mg/kg oral
[14] = second attack, LAQ 5.0 mg/kg oral daily, alone or + GA 12.5 mg/kg oral
[15] = second attack, LAQ 12.5 mg/kg oral daily
[16] = second attack, LAQ 25.0 mg/kg oral daily, alone or + GA 12.5 mg/kg oral

CCN(C(=O)c1c(O)c2c(Cl)cccc2n(C)c1=O)c1ccccc1 [laquinimod]
inhibition at 5 mg/kg (MOG-induced EAE [1]; Mus musculus, po, 0 h, laquinimod 5 mg/kg/day gavage, alone or + GA-blocking 12.5 mg/kg day 0, read-out: % inhibition compared to control (GMS)): 31.2% | inhibition at 25 mg/kg (MOG-induced EAE [1]; Mus musculus, po, 0 h, laquinimod 25 mg/kg/day gavage, alone or + GA-blocking 12.5 mg/kg day 0, read-out: % inhibition compared to control (GMS)): 54.4% | Group Mean Score (MOG-induced EAE [1]; [6]): 2.25** | Incidence (MOG-induced EAE [1]; [6]): 13/13 | Mean Disease Duration (MOG-induced EAE [1]; [6]): 13.2*** days | Mean Maximal Score (MOG-induced EAE [1]; [6]): 4.38* | Mean Onset (MOG-induced EAE [1]; [6]): 16.8* days | Group Mean Score (MOG-induced EAE [1]; [7]): 1.49*** | Incidence (MOG-induced EAE [1]; [7]): 14/15 | Mean Disease Duration (MOG-induced EAE [1]; [7]): 10.0*** days | Mean Maximal Score (MOG-induced EAE [1]; [7]): 3.27*** | Mean Onset (MOG-induced EAE [1]; [7]): 20.3** days | Mortality (MOG-induced EAE [1]; mouse, in vivo): 0/15 and 2/13 | weight, day 5 after induction ([2]; laquinimod 5 mg/kg/day): 17.5 | weight, day 10 after induction ([2]; laquinimod 5 mg/kg/day): 18.5 | weight, day 16 after induction ([2]; laquinimod 5 mg/kg/day): 18.6 | weight, day 24 after induction ([2]; laquinimod 5 mg/kg/day): 16.5 | weight, day 30 after induction ([2]; laquinimod 5 mg/kg/day): 16.0 | weight, day 5 after induction ([2]; laquinimod 25 mg/kg/day): 17.8 | weight, day 10 after induction ([2]; laquinimod 25 mg/kg/day): 18.9 | weight, day 16 after induction ([2]; laquinimod 25 mg/kg/day): 19.1* | weight, day 24 after induction ([2]; laquinimod 25 mg/kg/day): 17.5 | weight, day 30 after induction ([2]; laquinimod 25 mg/kg/day): 17.6 | inhibition at 1 mg/kg (MOG-induced EAE [3]; Mus musculus, po, 0 h, laquinimod 1 mg/kg/day gavage, read-out: % inhibition compared to Control (GMS)): -1.2% | inhibition at 5 mg/kg (MOG-induced EAE [3]; Mus musculus, po, 0 h, laquinimod 5 mg/kg/day gavage, read-out: % inhibition compared to Control (GMS)): 70% | inhibition at 25 mg/kg (MOG-induced EAE [3]; Mus musculus, po, 0 h, laquinimod 25 mg/kg/day gavage, read-out: % inhibition compared to Control (GMS)): 95% | Group Mean Score (MOG-induced EAE [3]; laquinimod 1 mg/kg/day gavage): 2.50 | Incidence (MOG-induced EAE [3]; laquinimod 1 mg/kg/day gavage): 15/15 | Mean Disease Duration (MOG-induced EAE [3]; laquinimod 1 mg/kg/day gavage): 14.1 days | Mean Maximal Score (MOG-induced EAE [3]; laquinimod 1 mg/kg/day gavage): 4.27 | Mean Onset (MOG-induced EAE [3]; laquinimod 1 mg/kg/day gavage): 13.7 days | Mortality (MOG-induced EAE [3]; laquinimod 1 mg/kg/day gavage): 4/15 | Group Mean Score (MOG-induced EAE [3]; laquinimod 5 mg/kg/day gavage): 0.74** | Incidence (MOG-induced EAE [3]; laquinimod 5 mg/kg/day gavage): 11/15 | Mean Disease Duration (MOG-induced EAE [3]; laquinimod 5 mg/kg/day gavage): 6.3*** days | Mean Maximal Score (MOG-induced EAE [3]; laquinimod 5 mg/kg/day gavage): 2.23* | Mean Onset (MOG-induced EAE [3]; laquinimod 5 mg/kg/day gavage): 21.0*** days | Mortality (MOG-induced EAE [3]; laquinimod 5 mg/kg/day gavage): 0/15 | % inhibition compared to Control (GMS) (MOG-induced EAE [3]; laquinimod 25 mg/kg/day gavage): 95.1% | Group Mean Score (MOG-induced EAE [3]; laquinimod 25 mg/kg/day gavage): 0.12*** | Incidence (MOG-induced EAE [3]; laquinimod 25 mg/kg/day gavage): 6/15 | Mean Disease Duration (MOG-induced EAE [3]; laquinimod 25 mg/kg/day gavage): 1.5*** days | Mean Maximal Score (MOG-induced EAE [3]; laquinimod 25 mg/kg/day gavage): 0.77*** | Mean Onset (MOG-induced EAE [3]; laquinimod 25 mg/kg/day gavage): 24.7*** days | Mortality (MOG-induced EAE [3]; laquinimod 25 mg/kg/day gavage): 0/15 | inhibition at 5 mg/kg ([4]; first and second attacks together, laquinimod 5.0 mg/kg oral daily 59 d, alone or + GA 12.5 mg/kg oral, read-out: GMS % inhibition): 21.7% | inhibition at 5 mg/kg ([4]; first and second attacks together, laquinimod 5.0 mg/kg oral daily 59 d, alone or + GA 12.5 mg/kg oral, read-out: Incidence % inhibition): 23.1% | inhibition at 5 mg/kg ([4]; first and second attacks together, laquinimod 5.0 mg/kg oral daily 59 d, alone or + GA 12.5 mg/kg oral, read-out: MMS % inhibition): 16.2% | inhibition at 12.5 mg/kg ([4]; first and second attacks together, laquinimod 12.5 mg/kg oral daily 59 d, read-out: GMS % inhibition): 43.5% | inhibition at 12.5 mg/kg ([4]; first and second attacks together, laquinimod 12.5 mg/kg oral daily 59 d, read-out: Incidence % inhibition): 23.1% | inhibition at 12.5 mg/kg ([4]; first and second attacks together, laquinimod 12.5 mg/kg oral daily 59 d, read-out: MMS % inhibition): 22.2% | inhibition at 25 mg/kg ([4]; first and second attacks together, laquinimod 25.0 mg/kg oral daily 59 d, alone or + GA 12.5 mg/kg oral, read-out: GMS % inhibition): 30.4% | inhibition at 25 mg/kg ([4]; first and second attacks together, laquinimod 25.0 mg/kg oral daily 59 d, alone or + GA 12.5 mg/kg oral, read-out: Incidence % inhibition): 30.8% | inhibition at 25 mg/kg ([4]; first and second attacks together, laquinimod 25.0 mg/kg oral daily 59 d, alone or + GA 12.5 mg/kg oral, read-out: MMS % inhibition): 27.8% | GMS value [4, 8]: 1.8 | Incidence [4, 8]: 10/14 | MMS value [4, 8]: 3.1 | Mean Duration [4, 8]: 26.5 ± 17.0 days | Mortality [4, 8]: 0/14 | GMS value [4, 9]: 1.3 | Incidence [4, 9]: 10/14 | MMS value [4, 9]: 2.8 | Mean Duration [4, 9]: 17.5 ± 14.0 days | Mortality [4, 9]: 0/14 | GMS value [4, 10]: 1.6 | Incidence [4, 10]: 9/14 | MMS value [4, 10]: 2.6 | Mean Duration [4, 10]: 23.0 ± 16.4 days | Mortality [4, 10]: 0/14 | IMS value [4, 11]: 42.9 ± 29.8 | Incidence [4, 11]: 10/14 | MMS % Inhibition 2 [4, 11]: 19.4% | MMS value [4, 11]: 2.9 ± 1.9 | Mean Duration [4, 11]: 15.4 ± 10.9 days | Mortality [4, 11]: 0/14 | IMS % Inhibition 3 ([4]; first attack, LAQ 5.0 mg/kg oral daily, alone or + GA 12.5 mg/kg oral, listed as LAQ): 15.6% | IMS % Inhibition 3 [4, 12]: 53.3% | IMS value [4, 12]: 32.4 ± 24.9 | Incidence [4, 12]: 10/14 | MMS % Inhibition 2 [4, 12]: 25.0% | MMS value [4, 12]: 2.7 ± 1.9 | Mean Duration [4, 12]: 9.6 ± 8.6 days | Mortality [4, 12]: 0/14 | IMS % Inhibition 3 [4, 13]: 42.8% | IMS value [4, 13]: 39.7 ± 32.3 | Incidence [4, 13]: 9/14 | MMS value [4, 13]: 2.6 ± 2.0 | Mean Duration [4, 13]: 13.9 ± 10.0 days | Mortality [4, 13]: 0/14 | % Inhibition 1 (incidence) [4, 14]: 1.8% | IMS % Inhibition 3 [4, 14]: 18.4% | IMS value [4, 14]: 38.6 ± 28.5 | Incidence [4, 14]: 10/14 | MMS % Inhibition 2 [4, 14]: 3.4% | MMS value [4, 14]: 2.8 ± 1.8 | Mean Duration [4, 14]: 11.4 ± 11.5 days | Mortality [4, 14]: 0/14 | % Inhibition 1 (incidence) [4, 15]: 11.6% | IMS % Inhibition 3 [4, 15]: 41.4% | IMS value [4, 15]: 27.7 ± 23.1 | Incidence [4, 15]: 9/14 | MMS % Inhibition 2 [4, 15]: 13.8% | MMS value [4, 15]: 2.5 ± 2.0 | Mean Duration [4, 15]: 7.9 ± 6.5 days | Mortality [4, 15]: 0/14 | % Inhibition 1 (incidence) [4, 16]: 21.5% | IMS % Inhibition 3 [4, 16]: 29.2% | IMS value [4, 16]: 33.5 ± 32.2 | Incidence [4, 16]: 8/14 | MMS % Inhibition 2 [4, 16]: 20.7% | MMS value [4, 16]: 2.3 ± 2.1 | Mean Duration [4, 16]: 9.1 ± 8.6 days | Mortality [4, 16]: 0/14 | oral bioavailability [5]: high oral bioavailability | safety and tolerability profile (Multiple Sclerosis): favorable safety and tolerability profile
